Laboratory results: paper PMC4201147 (Frontiers in Chemistry, 2014)
“Also recorded” adds a separate entry of the source. Read-outs that look alike come from different tables or passages of the source. Each block holds one molecule with its values, some of them ahead of it. Positions of bridges follow the written chain, without caps; N, C: chain ends. Non-standard residues stand in square brackets, D forms with d. Residues, ends and D or L forms follow the SMILES beside them. Chains are numbered I, II in the order given. No end group written: not given here. Ac6c = NC1(C(=O)O)CCCCC1; Dab = NCC[C@H](N)C(=O)O; Nva = CCC[C@H](N)C(=O)O

Assays:
MCF-7 cells = assay: Agonistic activity screening of targeted peptide library in MCF-7 cells; type: cell-based; settings: biological activity screening in MCF-7 cells, targeted agonist library
From the text: Based on the success of our first-in-class AdipoR agonist ADP355 and recognizing the need for a similar AdipoR antagonist, we modified the composition of ADP355 to attenuate AdipoR functions and signaling. The starting point of the design was the activity of the 396-member peptide library we made earlier and from which the ADP355 agonist was selected, and a new central hexamer named peptide 3–8 (Table 2). […] While Pro1 in the C-terminal octamer (Pro3 in ADP355) is replaceable, Gly2, Tyr4, Phe6, Ala7, and DSer8 should be kept for binding. Because Nva3 recovers activation, Leu, the original amino acid in native adiponectin, should be used in this position. […] In the new antagonist Pro1 was replaced with 1-amino-cyclohexane carboxylic acid (Chex1), extremely useful as an N-terminal cyclic aliphatic amino acid mimic in designer antibacterial peptides (Cudic et al., [2002]). These considerations led to derivative 400 (ADP400), H-Chex-Gly-Leu-Tyr-DSer-Phe-Ala-DSer-NH2 (we called it Chex-DSer-8), as a potential AdipoR antagonist (Tables 1, 2).

pooled mouse serum = settings: 37°C, up to 240 min
[1] = estimated from degradation kinetics in diluted mouse serum; ref Otvos et al., 2011a; cited from earlier work
From the text: Peptide ADP355 (355) is remarkably stable in mouse serum (Otvos et al., [2011a]). […] This stability level is quite high among peptide therapeutics, and is li ...

[2] = tested on: K562 chronic myeloid leukemia (CML) cells; assay: K562 CML cell proliferation, 3-day growth inhibition by cell count; type: cell-based, human
Method: (§1) MCF-7 BC and K562 chronic myeloid leukemia (CML) cells were grown in standard RPMI 1640 medium. Seventy-five thousand MCF-7 and 100,000 K-562 cells grown in RPMI 1640 medium containing 10% fetal bovine serum (FBS, for MCF-7) or 0.5% bovine serum albumin (BSA, for K562) were seeded into wells of 24-well culture plates. After 24 h, MCF-7 cells were shifted to K562 medium (serum free). After an additional 24 h, the cultures were treated with various concentrations of peptides or a mixture of peptides for 72 h and counted. The assays were done in triplicates and repeated twice from different cell preparations. The cell numbers were expressed as means ± standard error (SE). Statistical analysis was done with a SlideWrite graphical software package (Encinitas, USA).

normal mice = settings: up to a 10 mg/kg bolus intraperitoneal (ip) dose; ref Otvos et al., 2011a; cited from earlier work
From the text: In 2011 we reported on the identification of the adiponectin active site and the design and functional characterization of adiponectin-based peptide compounds for the activation of AdipoR using glioma and breast cancer (BC) model systems (Otvos et al., [2011a]). The lead peptide, the 10-mer ADP355, primarily acts through AdipoR1 and induces typical adiponectin signaling pathways in cancer cells (Otvos et al., [2011a]).

Serum stability = type: in vitro ADME; settings: undiluted pooled mouse serum, RP-HPLC at 214 nm, triplicate; for half-life at 0.075 mg/mL: 10 μL of 3 mg/mL peptide in 390 μL serum, 37°C, 0, 30, 120, 240 min, TCA precipitation
Method: (§2) For serum stability studies (Powell et al., [1993]) 10 μL of an aqueous peptide stock solution (3 mg/mL) was added to 390 μL pooled mouse serum in triplicate. The peptide-serum mixtures were thermostated at 37°C. After 0, 30, 120, and 240 min, 95 μL aliquots were mixed with 25 μL trichloroacetic acid (15%, w/v) and incubated for 10 min on ice. The precipitated proteins were separated by centrifugation (5 min, 12,000 × g, Eppendorf MiniSpin). The supernatant (90 μL) was neutralized with 8.5 μL aqueous sodium hydroxide solution (1 M) and mixed with 3% aqueous acetonitrile containing 0.1% TFA (121.5 μL). After centrifugation (5 min, 12,000 × g, Eppendorf MiniSpin) a 100 μL solution was analyzed by RP-HPLC using a Jupiter C18 column (2.0 mm inner diameter, 150 mm length, 5 μm particle size, 30 nm pore size; Phenomenex, Torrance) on a Beckman Gold HPLC System at 60°C. The gradient from 0.1% TFA in water (eluent A) to 60% acetonitrile in 0.1% aqueous TFA (eluent B) was developed using 1% B/min and the amide bond was monitored at 214 nm.

MCF-7 BC cells [3] = assay: MCF-7 BC cell proliferation, 3-day growth inhibition/promotion by cell count; type: cell-based
Method: as §1

MCF-7 BC cells [4] = settings: ADP400 100 nM with ADP355 100 nM; p = 0.003
[5] = Aggregation / precipitation observed during assays; type: physicochemical; settings: during serum stability assay procedure (mouse serum, TCA precipitation) or under the authors' experimental conditions
Method: as §2

[6] = tested on: K562 chronic myeloid leukemia (CML) cells; settings: compared to unrelated human serum albumin; ref Yokota et al., 2000; cited from earlier work
From the text: The cellular models used here were selected among those known to express AdipoR, involve adiponectin in biological responses and yield reproducible results in our hands. Adiponectin protein has been linked to leukemia, lymphoma, and myeloma in individuals with above-average BMI (Obeid and Hebbard, [2012]). Human-origin K562 CML cells express both AdipoR forms although at relatively low levels (Ozturk et al., [2012]).

Molecule: NIPGLY[dS]FAY [compound 223, member of targeted agonist library]
Agonistic activity (MCF-7 cells): Weakest among P25 analogs

Molecule: PGLYYF [3–8, new central hexamer]
Agonistic activity (MCF-7 cells): None

Molecule: [dN]IPGLYGFA[dS] [compound 91, member of targeted agonist library]
Agonistic activity (MCF-7 cells): Normal

Molecule: PGL[dS]YF[Nva]YHI [compound 290, member of targeted agonist library]
Agonistic activity (MCF-7 cells): None

Molecule: PGLYYFAYHI [compound 26, member of targeted agonist library]
Agonistic activity (MCF-7 cells): Normal

Molecule: HCNIPGLYYF [compound 24, member of targeted agonist library]
Agonistic activity (MCF-7 cells): Normal

cleaved bond (pooled mouse serum): Leu-Tyr; also recorded: Tyr-DSer
Molecule: (H-DAsn-Ile-Pro-Nva-Leu-Tyr-DSer-Phe-Ala-DSer-His-Pro)2-Dab-NH2 (branched)

Molecule: CCC[C@H](NC(=O)[C@@H]1CCCN1C(=O)[C@@H](NC(=O)[C@H](N)CC(N)=O)[C@@H](C)CC)C(=O)N[C@@H](CC(C)C)C(=O)N[C@@H](Cc1ccc(O)cc1)C(=O)N[C@H](CO)C(=O)N[C@@H](Cc1ccccc1)C(=O)N[C@@H](C)C(=O)N[C@H](CO)C(N)=O [ADP355] (H-[dN]IP[Nva]LY[dS]FA[dS]-NH2)
half-life in whole plasma (estimated) [1]: 1.25 h
IC50 ([2]; K562, 72 h treatment, 10 nM–10 μM peptide, first assay, IC50 halfway between uninhibited growth and maximal growth inhibition, read-out: relative IC50, inhibition of K562 proliferation): 200 nM
toxic properties to normal mice (normal mice): no toxic properties
half-life at 0.075 mg/mL (Serum stability): 3 h

Molecule: CC(C)C[C@H](NC(=O)CNC(=O)C1(N)CCCCC1)C(=O)N[C@@H](Cc1ccc(O)cc1)C(=O)N[C@H](CO)C(=O)N[C@@H](Cc1ccccc1)C(=O)N[C@@H](C)C(=O)N[C@H](CO)C(N)=O [ADP400] (H-[Ac6c]GLY[dS]FA[dS]-NH2)
effect on MCF-7 cell growth without ADP355 present (MCF-7 BC cells [3]; 100 nM, alone, compared with co-treatment, which reached the growth level of 10 nM leptin): promoted cell growth to an identical degree
effect on ADP355-induced MCF-7 growth inhibition (MCF-7 BC cells [4]): completely ameliorated

Molecule: HCN[Nva]PGLYYF [compound 156, member of targeted agonist library]
Agonistic activity (MCF-7 cells): None

Molecule: leptin: Leptin protein, positive control for exogenous mitogen actions [reference compound]
promotion of MCF-7 cell growth (MCF-7 BC cells [3]; 10 nM, positive control for exogenous mitogen): 10%

IC50 ([2]; 72 h): 300 nM
aggregation / precipitation ([5]; listed as cyclic dimer): precipitated during the assay procedure
Molecule: CCC[C@@H]1NC(=O)[C@@H]2CCCN2C(=O)[C@H]([C@@H](C)CC)NC(=O)[C@@H](CC(N)=O)NC(=O)[C@H](CC(=O)O)NC(=O)[C@H](Cc2c[nH]cn2)NC(=O)[C@@H](CO)NC(=O)[C@H](C)NC(=O)[C@H](Cc2ccccc2)NC(=O)[C@@H](CO)NC(=O)[C@H](Cc2ccc(O)cc2)NC(=O)[C@H](CC(C)C)NC(=O)[C@H](CCC)NC(=O)[C@@H]2CCCN2C(=O)[C@H]([C@@H](C)CC)NC(=O)[C@@H](CC(N)=O)NC(=O)[C@@H]2CCCN2C(=O)[C@H](Cc2c[nH]cn2)NC(=O)[C@@H](CO)NC(=O)[C@H](C)NC(=O)[C@H](Cc2ccccc2)NC(=O)[C@@H](CO)NC(=O)[C@H](Cc2ccc(O)cc2)NC(=O)[C@H](CC(C)C)NC1=O [compound 398]
concentration of maximal effect on K562 proliferation ([2]; K562, 3-day assay): 1 µM
aggregation / precipitation [5]: did aggregate during the serum stability assay

half-life at 0.075 mg/mL (Serum stability): 0.917 h
remaining at 2 h, 0.075 mg/mL (Serum stability; 37°C, 2 h, read-out: intact peptide still present after 2 h incubation): 16%
Molecule: CCC[C@H](NC(=O)[C@@H]1CCCN1C(=O)[C@@H](NC(=O)[C@H](N)CC(N)=O)[C@@H](C)CC)C(=O)N[C@@H](CC(C)C)C(=O)N[C@@H](Cc1ccc(O)cc1)C(=O)N[C@H](CO)C(=O)N[C@@H](Cc1ccccc1)C(=O)N[C@@H](C)C(=O)N[C@H](CO)C(=O)N[C@@H](Cc1c[nH]cn1)C(=O)N1CCC[C@H]1C(=O)NCC[C@H](NC(=O)[C@@H]1CCCN1C(=O)[C@H](Cc1c[nH]cn1)NC(=O)[C@@H](CO)NC(=O)[C@H](C)NC(=O)[C@H](Cc1ccccc1)NC(=O)[C@@H](CO)NC(=O)[C@H](Cc1ccc(O)cc1)NC(=O)[C@H](CC(C)C)NC(=O)[C@H](CCC)NC(=O)[C@@H]1CCCN1C(=O)[C@@H](NC(=O)[C@H](N)CC(N)=O)[C@@H](C)CC)C(N)=O [ADP399] (I: H-[dN]IP[Nva]LY[dS]FA[dS]HP[Dab]-NH2 / II: H-[dN]IP[Nva]LY[dS]FA[dS]HP; amide I:13-II:C)

Molecule: NIPGLYYFAY [compound 25]
Agonistic activity (MCF-7 cells): Normal

Molecule: NIP[Nva]LYYFAY [compound 157, member of targeted agonist library]
Agonistic activity (MCF-7 cells): Increased

Molecule: HCN[Nva]PG[Nva]YYF [compound 288, member of targeted agonist library]
Agonistic activity (MCF-7 cells): Reduced

B1: adiponectin protein: full-sized adiponectin protein, 244 amino acid cytokine (protein, UniProt Q15848 1-244, looked up)
chain: MLLLGAVLLLLALPGHDQETTTQGPGVLLPLPKGACTGWMAGIPGHPGHNGAPGRDGRDGTPGEKGEKGDPGLIGPKGDIGETGVPGAEGPRGFPGIQGRKGEPGEGAYVYRSAFSVGLETYVTIPNMPIRFTKIFYNQQNHYDGSTGKFHCNIPGLYYFAYHITVYMKDVKVSLFKKDKAMLFTYDQYQENNVDQASGSVLLHLEVGDQVWLQVYGEGERNGLYADNDNDSTFTGFLLYHDTN
modifications: full-length
notes: full-sized adiponectin protein, 244 amino acid cytokine
inhibition of relative proliferation rate of K562 cells [6]: 9%
